Reference: patent publication US7408065B2, “P2X7 receptor antagonists and their use” (AstraZeneca AB, priority 2003, dated 2008)
Counter-ions that a name gives are not always drawn.

CN[C@H]1CCN(c2ccc3c(NC(=O)CC4CCCCC4)c(Cl)ccc3n2)C1 [Example 35, N-[6-Chloro-2-[(3S)-3-(methylamino)-1-pyrrolidinyl]-5-quinolinyl]-cyclohexaneacetamide]
melting point: 164 to 165 °C

CCCCNCCCc1ccc2c(NC(=O)CC3CCCCC3)c(Cl)ccc2n1 (as salt: hydrochloride)
melting point: 219 to 221 °C

O=C(O)CCCc1ccc2c(NC(=O)CC3CCCCC3)c(Cl)ccc2n1 [Example 67, 6-Chloro-5-[(cyclohexylacetyl)amino]-2-quinolinebutanoic Acid]
melting point: 216 to 220 °C

O=C(CC1CCCCC1)Nc1c(Cl)ccc2nc(N3CC[C@H](NS(=O)(=O)C(F)(F)F)C3)ccc12 [Example 88, N-[6-Chloro-2-[(3S)-3-[[(trifluoromethyl)sulfonyl]amino]-1-pyrrolidinyl]-5-quinolinyl]-cyclohexaneacetamide]
melting point: 178 to 200 °C

O=C(CC1CCCCC1)Nc1c(Cl)ccc2nc(N3CCC(NS(=O)(=O)C(F)(F)F)CC3)ccc12 [Example 114, N-[6-Chloro-2-[4-[[(trifluoromethyl)sulfonyl]amino]-1-piperidinyl]-5-quinolinyl]-cyclohexaneacetamide]
melting point: 187 to 189 °C

O=C(CC1CCCCC1)Nc1c(Cl)ccc2nc(NC[C@@H](O)CO)ccc12 [Example 6, N-[6-Chloro-2-[[(2R)-2,3-dihydroxypropyl]amino]-5-quinolinyl]-cyclohexaneacetamide]
melting point: 155 to 159 °C

O=C(CC1CCCCC1)Nc1c(Cl)ccc2nc(CCCNCCCO)ccc12 [Example 22, N-[6-Chloro-2-[3-[(3-hydroxypropyl)amino]propyl]-5-quinolinyl]-cyclohexaneacetamide]
melting point: 159 to 163 °C

CNCCCN(C)c1ccc2c(NC(=O)CC3CCC(C(F)(F)F)CC3)c(Cl)ccc2n1 (centres unmarked) (as salt: hydrochloride)
melting point: 250 °C (dec.)

O=C(CC1CCCCC1)Nc1c(Cl)ccc2nc(CCCc3nnn[nH]3)ccc12 (as salt: trifluoroacetate)
melting point: 140 to 145 °C

O=C(CC1CCCCC1)Nc1c(Cl)ccc2nc(N3CC[C@H](NCCO)C3)ccc12 [Example 36, N-[6-Chloro-2-[(3S)-3-[(2-hydroxyethyl)amino]-1-pyrrolidinyl]-5-quinolinyl]-cyclohexaneacetamide]
melting point: 194 to 196 °C

Cc1ccc2ncccc2c1C(=O)NCC1CCCCC1 [Example 57, N-(Cyclohexylmethyl)-6-methyl-5-quinolinecarboxamide]
melting point: 165 °C

CC1(CC(=O)Nc2c(Cl)ccc3nc(N4CCC(C(=O)O)CC4)ccc23)CCCCC1 [Example 79, 1-[6-Chloro-5-[[(1-methylcyclohexyl)acetyl]amino]-2-quinolinyl]-4-piperidinecarboxylic Acid]
melting point: 210 to 212 °C

O=C(NCC1CCCCC1)c1c(Cl)ccc2nc(N3CC(O)C3)ccc12 [Example 53, 6-Chloro-N-(cyclohexylmethyl)-2-(3-hydroxy-1-azetidinyl)-5-quinolinecarboxamide]
melting point: 206 to 208 °C

CN1CCN(c2ccc3c(NC(=O)CC4CCCCC4)c(Cl)ccc3n2)CC1 (as salt: hydrochloride)
melting point: 270 °C (dec.)

O=C(O)CN1CCN(c2ccc3c(C(=O)NCC4CCCCC4)c(Cl)ccc3n2)CC1 (as salt: acetate) [Example 73, 4-[6-Chloro-5-[[(cyclohexylmethyl)amino]carbonyl]-2-quinolinyl]-1-piperazineacetic acid, Acetate]
melting point: 185 to 190 °C

CCNCCCc1ccc2c(NC(=O)CC3CCCCC3)c(C)ccc2n1 (as salt: hydrochloride) [Example 15, N-[2-[3-(Ethylamino)propyl]-6-methyl-5-quinolinyl]-cyclohexaneacetamide, Dihydrochloride]
melting point: 231 to 234 °C

O=C(CC1CCCCC1)Nc1c(Cl)ccc2nc(CCCCc3nnn[nH]3)ccc12 [Example 105, N-[6-Chloro-2-[4-(1H-tetrazol-5-yl)butyl]-5-quinolinyl]-cyclohexaneacetamide]
melting point: 192 to 195 °C
